Consider 88 compounds from a melting point compilation (Tetko et al.; mined from patent text by program, amines drawn as free bases though some values may be those of a salt).

Each structure is given as a SMILES string. Bounds are passed on as bounds.

Compound `O=C(c1ccccc1)n1cc(F)c(=O)n(C(=O)c2ccccc2)c1=O` gave a melting point of 195 °C.
The result for `N#Cc1ccc(Oc2nc(Nc3cccc(C(=O)O)c3)nc(Oc3ccccc3)n2)cc1` reads 150 °C; that for `COc1ncccc1-c1nc(C(N)=O)c2[nH]c(=O)n(-c3ccccc3)c2n1`, 279 to 281 °C.
The same measure for `CC(C)(C)OC(=O)[C@H]1CCCN1`: 51.5 to 53.2 °C; for `C[N+]([O-])=C(Cn1ccnc1)c1ccc2ccccc2c1`: 112 to 114 °C; for `CCCCOc1cccc(CCNC(=O)C(Br)=Cc2ccccc2)c1`: 38 to 39 °C.
`CC(=O)c1c(NC(=O)c2ccc([N+](=O)[O-])cc2)cccc1C(F)(F)F` registered a melting point of 245 °C.
As to `Cn1c(=O)n(Cc2ccccc2)c(=O)c2cc(C(=O)O)ccc21`, the melting point is 227 °C.
The result for `Nc1c(C(=O)O)ccc(F)c1F` reads 207 to 208 °C.
The same measure for `CC(=O)Nc1cccc(-c2cccnc2)c1`: 72 to 74 °C; for `C=C(C)C(=O)Oc1ccc(/C=C/C(=O)OC)cc1`: 76 to 80 °C.
`COc1cc(C(=O)O)ccc1Cc1c(Cl)n(C)c2ccc(CCNC(=O)N(C)C)cc12`: the melting point was found to be 215 °C.
Compound `CCOC(=O)C1C=Nc2c(c(F)cc3cc(C(=O)N(C)Cc4ccccc4)cnc23)C1=O` (stereo not drawn) returned a melting point of 201 to 203 °C.
The same measure for `CS(=O)(=O)c1cc(C(=O)O)cc([N+](=O)[O-])c1Cl`: 190 to 194 °C; for `CCn1c(=O)c2c(nc(/C=C/c3ccc(OCC(=O)c4ccccc4)c(OC)c3)n2C)n(CC)c1=O`: 180 to 182 °C.
For the compound `O=C(C(=NO)c1ccc(F)cc1)c1ccnc(F)c1`, the melting point worked out at 166 °C.
With `COc1ccc(-c2nnc(Cl)cc2C)cc1`, the melting point came to 132 °C.
The result for `CC(=O)NC1CCC2=C(CC1)C(=O)C(CC(=O)O)C=C2` (stereo not drawn) reads 198 °C.
The result for `CC(C)(C)CC(C)(C)NCC(=O)N1CC2C(C1)C2Nc1ncc2cc(-c3ccccc3Cl)c(=O)n(C3CC3)c2n1` (stereo not drawn) reads 218 to 220 °C; that for `NCCc1c2n(c3ccccc13)C(=O)CCC2`, 110 to 111 °C.
The same measure for `N#Cc1cc(-c2ccc(Cl)c(Cl)c2)[nH]c1Br`: over 200 °C; for `CCCCn1cc(N)c(=O)c2cnc(-c3ccncc3)nc21`: 195 to 196 °C.
`COc1cc(-c2oc3c(OC)cc(/C=C/C=O)cc3c2C)ccc1O` displayed a melting point of 169 to 170 °C.
The result for `O=C(O)c1ncsc1S` reads 156 to 157 °C.
The result for `COc1ccc(C2=NN(C3CCSCC3)C(=O)[C@H]3CC=CC[C@@H]23)c2c1OC(C)(C)C2` (relative stereo) reads 163 to 164 °C.
The result for `Cc1c(O)cc2c(c1C)N(C=O)C(C)(C)C2` reads 202 to 204 °C; that for `COc1ccc(C[C@H](NC(=O)OCc2ccccc2)[C@H]2CO2)cc1`, 86 to 87 °C; that for `CC(C)(C)OC(=O)Nc1ccc(-c2noc(COc3ccc(F)c(C(N)=O)c3F)n2)cc1`, 165 to 166 °C.
`Cc1cc(Cc2ccc(Cl)cc2)n(O)c(=O)c1` yielded a melting point of 142 °C.
As for `Cc1ccc(CN2C(=O)[C@@H](NC(=O)Cc3ccccc3)[C@H]2CO)c(C)c1` (relative stereo), the melting point lay in the range of 152 to 154 °C.
For `O=C(O)COCCOCCN1C(=O)c2ccccc2C1=O`, the melting point was in the range of 88 to 90 °C.
The same measure for `CCCCN1CC=C(c2cccc3c2CC(=O)N3)CC1`: 110 to 111 °C; for `Cn1c(COc2ccc(CC3SC(=O)NC3=O)cc2)nc2ccc(Oc3cccc(NC(=O)Nc4cccc(C(F)(F)F)c4)c3)cc21` (stereo not drawn): 162 to 163 °C; for `Cc1cc(-n2cc(-c3ccc(F)cc3F)nc2C)cc2ccc(=O)[nH]c12`: 262 to 265 °C.
In turn, `CCS(=O)(=O)N(C)C1CC(C)(C)Oc2ccc(OCc3ccccc3)cc21` (stereo not drawn) registered a melting point of 91 to 93 °C.
The same measure for `Cc1cc(C#Cc2cn(-c3ccc(F)cc3)c(C)n2)ccn1`: 151 °C; for `Cc1nnc2ccc(-c3ccccc3F)nn12`: 147 to 149 °C; for `O=C(Nc1ccccc1)Nc1ccc(-c2ccc(C(=O)N3CCN4CCC3CC4)o2)cc1`: 125 to 130 °C.
The same measure for `CN1CCN(c2ccc(-c3cnc4c(c3)N(Cc3cc(Cl)ccc3C(F)(F)F)CCN4)cn2)CC1`: 226 to 227 °C; for `CC(C)(C)OC(=O)NC1CSCCNC1=O` (stereo not drawn): 200 to 201 °C; for `CC(=O)OCC1OC(OC2C(COC(C)=O)OC(Oc3ccc([N+](=O)[O-])cc3)C(OC(C)=O)C2OC(C)=O)C(OC(C)=O)C(OC(C)=O)C1OC(C)=O` (stereo not drawn): 165 to 170 °C.
The result for `NS(=O)(=O)NC[C@H]1COc2cc(Cl)c(Cl)cc2O1` reads 119 to 121 °C; that for `O=C1Nc2ccccc2C(c2ccccc2)N1C1CCN(Cc2cccc(OC(F)(F)F)c2)CC1` (single isomer, unassigned; (+)), 195 to 198 °C; that for `O=c1c2cc(F)c(N3CCCC3)nc2n(-c2ccc(F)cc2F)c(=O)n1OCc1ccccc1`, 183 to 185 °C.
Take `CC(C)(C)c1cc(NC(=O)c2cncc3cc(Oc4cc(N)ncn4)ccc23)n(-c2ccc(F)cc2)n1`: the melting point is 124 to 126 °C.
The result for `O=c1nc(-c2ccc3c(c2)OCO3)c2cc3c(cc2n1CC1CC1)OCO3` reads 255 to 260 °C.
`CCC(CC)Nc1c([N+](=O)[O-])cc(C)c(COC(C)=O)c1[N+](=O)[O-]` showed a melting point of 47 to 49 °C.
As for `COC(=O)CC1=C(C)/C(=C/c2ccc(SC)cc2)c2ccc(F)cc21`, the melting point was in the range of 73 to 75 °C.
`CCCCC1(CCCC)NC(c2nc(-c3ccncc3)c[nH]2)Cc2c1[nH]c1ccccc21` (stereo not drawn) registered a melting point of 200 to 205 °C.
The result for `O=c1c(-c2ccccc2Cl)cc2cnc(NC3C4CN(Cc5ccccc5)CC43)nc2n1C1CCNC1` (stereo not drawn) reads 203 to 206 °C.
The same measure for `C[C@@H](n1cnc2cc(Br)c(F)cc2c1=O)[C@](O)(Cn1cncn1)c1ccc(F)cc1F`: 185 to 186 °C; for `CCCCc1ccc(C(=O)NC(C)(C(N)=O)C(C)C)nc1` (stereo not drawn): 83 to 86 °C.
The result for `Cn1c2ccccc2c(=O)c2c(Br)cccc21` reads 219 to 221 °C; that for `Nc1ccc2c(c1)OCC(CN1CC=C(c3c[nH]c4ccccc34)CC1)O2` (stereo not drawn), 199 to 200 °C; that for `Cc1c(C2CCC(c3cccs3)(N(C)C)CC2)[nH]c2ccccc12` (stereo not drawn), 191 to 197 °C.
On to `CC(=O)SCC(=Cc1ccc(-c2ccccc2)cc1)C(=O)NCCC(=O)OCc1ccccc1`, for which the melting point amounted to 76 °C.
For the compound `Cc1nc2sc3ccccc3n2n1`, the melting point was 75 to 76 °C.
The same measure for `COC(=O)c1[nH]c(=S)n(Nc2cccc(Cl)c2)c1C`: 160 to 162 °C.
`Cn1cc(C2=C(c3c4n(c5ccccc35)CCC(CNC=O)C4)C(=O)NC2=O)c2ccccc21` (stereo not drawn) registered a melting point of 332 to 334 °C.
Compound `CCN1C(=O)C2=C(c3ccccc3)N(CC)C(=O)C2=C1c1ccccc1` showed a melting point of 229 to 230 °C.
Compound `CC1(C)OC(=C(C#N)C#N)C(C#N)=C1c1ccc(C#C[Si](C)(C)C)cc1` yielded a melting point of 201 °C.
In the case of `CC1(C)Oc2ccc(C#N)cc2[C@@H](Br)[C@@H]1O` (relative stereo), the melting point was in the range of 111 to 112 °C.
The result for `Cc1ccc(N2N=C(C(F)(F)F)CC2c2ccc(S(C)(=O)=O)cc2)cc1` (stereo not drawn) reads 140 to 143 °C; that for `CCOCc1nc2c(N)nc3cc(-c4cncc(CO)c4)cnc3c2n1CC(C)(C)O`, 212 to 214 °C; that for `CCOC(=O)C(=CN(C)C)C(=O)c1cc(F)c(N2CCC(NC(C)=O)C2)nc1Nc1ccc(F)cc1F` (stereo not drawn), 184 to 186 °C.
`COC(=O)CCCCCCNC(=O)C(CSC(C)=O)Cc1ccccc1` (stereo not drawn) returned a melting point of 84 to 85 °C.
The result for `N#Cc1ccccc1-c1nc2ncccc2o1` reads 166 to 167 °C; that for `CSCCC1OC2(CCCCC2)NC1=O` (stereo not drawn), 109 °C; that for `COc1ccc(C(=O)Nc2ccccc2)cc1Nc1cccc([N+](=O)[O-])c1`, 220 to 221 °C.
The result for `Cc1cc(Oc2cccc(C(F)(F)F)c2)nn1C(=O)Nc1ccc(Cl)c(Cl)c1` reads 97 to 99 °C; that for `COc1c(C)cc(C(=O)O)cc1-c1ccccc1`, 165 to 168 °C; that for `CC(C)(CN)c1ccc(C(=O)NCCc2ccc3[nH]cc(C(=N)N)c3c2)cc1`, 67 to 70 °C.
The result for `CCOC(=O)c1c(N)sc(N=Cc2cccs2)c1C(=O)OCC` reads 114 to 116 °C; that for `O=C(c1ccc(-n2ccc(C(F)(F)F)n2)cc1)N1Cc2cccn2Cc2ccccc21`, 166 to 167 °C.
In the case of `CNS(=O)(=O)Cc1ccc(Nc2nc(Nc3ccccc3)c3cc(OC)ccc3n2)cc1`, the melting point was in the range of 212 to 215 °C.
The same measure for `O=C1c2ccccc2C(=O)N1C(=O)c1cc(Oc2ccc(C(F)(F)F)cc2Cl)ccc1[N+](=O)[O-]`: 160 °C; for `CCCCOc1ccc(C(=O)c2cccc(C(=O)O)c2)c(O)c1`: 175 °C.
The result for `CCCCCCCCCCNCC(O)CO` (stereo not drawn) reads 65 to 67 °C; that for `CC(=O)NC(=O)C(Cl)c1ccccc1` (stereo not drawn), 101 to 102 °C.
`COc1ccc(-c2ccc3c(c2)CCc2nn(-c4ccccn4)c(O)c2-3)cc1`: the melting point fell in the range of 159 to 160 °C.
The result for `O=C1NCCCc2cc(OCCCN3CCN(Cc4ccc5ccccc5n4)CC3)ccc21` reads 161 to 162 °C; that for `Cc1cc2cc(CN3CCC(C(N)=O)CC3)cnc2cc1NC(=O)c1ccc(-c2ccc(F)cc2)cc1`, 265 °C; that for `CP(C)(=O)C(O)C(=O)O` (stereo not drawn), 206 to 208 °C.
The result for `COC(=O)c1cc(C)cc(C#N)c1` reads 68 to 69 °C.
The result for `O=C(NC1CN2CCC1CC2)c1cccc2nc(-c3ccc(F)cc3)oc12` (stereo not drawn) reads 185 to 187 °C.
Take `O=C(O)COc1ccc(C(=O)CN2CCN(c3ccncc3)CC2)cc1`: the melting point was 294 to 296 °C.
The result for `CCNC1=NS(=O)(=O)c2cccc(F)c21` reads 236 to 238 °C; that for `CCS(=O)(=O)CC=Cc1ccccc1`, 100 °C.
